Data reported in patent US20200230126A1, “TARGETED THERAPEUTICS” (TARVEDA THERAPEUTICS, INC., priority 2017, published 2020).

What was measured:
Type in all cases: physicochemical
[1] = Solubility at various pH in 0.9% Sodium Chloride (HCl addition, about 24 hours equilibration, 0.2 μm filtration); parameters: key to appearance: Conforms = clear and essentially free of visible particles; details: 0.9% Saline
Experimental: (§1) Experiments were performed to assess the solubility of SDC-TRAP-0063 Sodium as a function of varying pH.

[2] = Head-to-head in-use test, 5% Mannitol dosing solution in IV bag, syringe and IV line with rocking
Experimental: (§2) A head-to-head in-use test of the SDC-TRAP-0063 Sodium 0.9% Sodium Chloride and 5% Mannitol dosing solutions was conducted. This study was intended to directly compare the two based on the specific clinical use direction for each diluent. In this study, the respective IV bags, syringes and IV lines were subjected to a rocking motion during the hold periods to mimic a worst case scenario for agitation of the dosing solution.
The 5% Mannitol dosing solution was tested in a syringe and IV line as designed for use in the clinic with the addition of continuous rocking to simulate a worst case for agitation of the samples (Table 6). This dosing solution was tested at the limits of intended concentrations of 3 mg/mL and 12 mg/mL of SDC-TRAP-0063 Sodium and with a 2 hour hold period in the IV bag, a 6 hour hold period in the syringe and IV line and a 2-hour simulated infusion to exceed the planned clinical timeframes.

[3] = Head-to-head in-use test, 0.9% Sodium Chloride dosing solution in IV bag and IV line with rocking; parameters: key to appearance: Conforms = clear and essentially free of visible particles; details: for appearance: 0.6 mg/mL in Sodium Chloride
Experimental: as §2
The 0.9% Sodium Chloride dosing solution was tested in an IV bag and IV line and at 0.6 mg/mL of SDC-TRAP-0063 Sodium as used in the clinic during the product complaint, with a designed 4 hour hold period followed by a 2-hour simulated infusion using a peristaltic pump (Table 5).

[4] = Particulate formation in dosing solutions using 0.9% Sodium Chloride, 5% Mannitol and 5% Dextrose adjusted to the low USP pH limits, with rocking (appearance, pH, HPLC recovery); parameters: key to appearance: Conforms = clear and essentially free of visible particles
Experimental: A study was conducted with 0.6 mg/mL and 2.4 mg/mL solutions of SDC-TRAP-0063 Sodium using one of three diluents; 0.9% Sodium Chloride as a positive control, and 5% Dextrose and 5% Mannitol as potential new diluents (Table 2). Each diluent was prepared at the lower pH limit of USP to test a worst-case scenario for solubility (the starting pH was 4.5 for 0.9% Sodium Chloride and 5% Mannitol and 3.2 for 5% Dextrose). The SDC-TRAP-0063 Sodium dosing solutions were prepared in glass vials and then placed on a rocker. […]

[5] = Solubility at various pH in 5% Mannitol (HCl addition, about 24 hours equilibration, 0.2 μm filtration); parameters: key to appearance: Conforms = clear and essentially free of visible particles
Experimental: as §1

Solubility in water = experiment: Solubility in water
Text: As discussed above, the solubility of SDC-TRAP-0063 Sodium is driven primarily by pH. […] Reducing the pH allows the equilibrium to shift more to the lactone form and adversely impacts solubility. Dilute solutions of SDC-TRAP-0063 Sodium result in a lower pH with an increased risk of precipitation. The solubility of SDC-TRAP-0063 Sodium has also been seen to be adversely impacted by the use of 0.9% Sodium Chloride as a diluent. A common ion effect is the likely source of this observation.

[6] = 0 molar percent HCl added, pH 9.9
[7] = 8.1 molar percent HCl added, pH 9.6
[8] = 14.4 molar percent HCl added, pH 9.1
[9] = 33.1 molar percent HCl added, pH 8.7
[10] = 35.5 molar percent HCl added, pH 8.7

Compound: CCc1c2c(nc3ccc(OC(=O)N4CCC(CCn5ccc6cc(-n7c(O)nnc7-c7cc(C(C)C)c(O)cc7O)ccc65)CC4)cc13)-c1cc([C@@](O)(CC)C(=O)[O-])c(CO)c(=O)n1C2.[Na+] [SDC-TRAP-0063 Sodium, Sodium (S)-2-(2-((4-(2-(5-(3-(2,4-dihydroxy-5-isopropylphenyl)-5-hydroxy-4H-1,2,4-triazol-4-yl)-1H-indol-1-yl)ethyl)piperidine-1-carbonyl)oxy)-12-ethyl-8-(hydroxymethyl)-9-oxo-9,11-dihydroindolizino[1,2-b]quinolin-7-yl)-2-hydroxybutanoate]
- SDC-TRAP-0063 Sodium concentration in the solution [1, 6]: 22.9 mg/mL
- appearance [1, 6]: Conforms^1
- SDC-TRAP-0063 Sodium concentration in the solution [1, 7]: 23.4 mg/mL
- appearance [1, 7]: Slightly hazy solution
- SDC-TRAP-0063 Sodium concentration in the solution [1, 8]: 21.4 mg/mL
- appearance [1, 8]: Slightly hazy solution
- SDC-TRAP-0063 Sodium concentration in the solution [1, 9]: 18.6 mg/mL
- appearance [1, 9]: Slightly hazy solution
- appearance ([1]; 33.1 molar percent HCl added, pH 8.7, after 1 hour): gelation after 1 hour
- SDC-TRAP-0063 Sodium concentration in the solution [1, 10]: 13.7 mg/mL
- appearance [1, 10]: Slightly hazy solution
- appearance ([1]; 35.5 molar percent HCl added, pH 8.7, after 1 hour): gelation after 1 hour
- precipitation ([2]; 3 mg/mL and 12 mg/mL, all time points, continuous rocking): no precipitation was observed at any time point
- Recovery of SDC-TRAP-0063 Sodium (Calculated vs. Initial concentration) ([2]; 3 mg/mL, Bulk solution, 8 hours (6 + 2 infusion)): 98.0%
- Recovery of SDC-TRAP-0063 Sodium (Calculated vs. Initial concentration) ([2]; 3 mg/mL, IV bag, 0 hours): 100.0%
- Recovery of SDC-TRAP-0063 Sodium (Calculated vs. Initial concentration) ([2]; 3 mg/mL, IV bag, 2 hours): 102.5%
- Recovery of SDC-TRAP-0063 Sodium (Calculated vs. Initial concentration) ([2]; 3 mg/mL, IV line (infusion end), 8 hours (6 + 2 infusion)): 98.7%
- Recovery of SDC-TRAP-0063 Sodium (Calculated vs. Initial concentration) ([2]; 3 mg/mL, IV line (infusion start), 6 hours, low volume in syringe, complete sample not obtained): 93.5%^1
- Recovery of SDC-TRAP-0063 Sodium (Calculated vs. Initial concentration) ([2]; 3 mg/mL, IV line, 0 hours): 97.2%
- Recovery of SDC-TRAP-0063 Sodium (Calculated vs. Initial concentration) ([2]; 12 mg/mL, Bulk solution, 8 hours (6 + 2 infusion)): 105.4%
- Recovery of SDC-TRAP-0063 Sodium (Calculated vs. Initial concentration) ([2]; 12 mg/mL, IV bag, 0 hours): 100.0%
- Recovery of SDC-TRAP-0063 Sodium (Calculated vs. Initial concentration) ([2]; 12 mg/mL, IV bag, 2 hours): 103.9%
- Recovery of SDC-TRAP-0063 Sodium (Calculated vs. Initial concentration) ([2]; 12 mg/mL, IV line (infusion end), 8 hours (6 + 2 infusion)): 104.3%
- Recovery of SDC-TRAP-0063 Sodium (Calculated vs. Initial concentration) ([2]; 12 mg/mL, IV line (infusion start), 6 hours): 101.6%
- Recovery of SDC-TRAP-0063 Sodium (Calculated vs. Initial concentration) ([2]; 12 mg/mL, IV line, 0 hours): 103.6%
- termination of the simulated infusion after onset due to occlusion of the in-line filter ([3]; 0.6 mg/mL in 0.9% Sodium Chloride, 2-hour simulated infusion, peristaltic pump): ≤ 1 h
- precipitation during the hold period ([3]; 0.6 mg/mL in 0.9% Sodium Chloride, 4 hour hold period, rocking): Precipitation was observed in both the IV bag and IV line
- appearance ([3]; Bulk solution, at termination, collected after in line filter): Conforms^1
- appearance ([3]; Drip Chamber of the IV Administration set, less than 1 hour (infusion terminated)): Hazy with fine floating
- appearance ([3]; IV Administration set, 0 hours, collected after in line filter): Conforms^1
- appearance ([3]; IV bag, 0 hours): Conforms^1
- appearance ([3]; IV bag, 2 hours): Slightly hazy solution
- appearance ([3]; IV bag, 4 hours, collected after in line filter): Conforms^1
- pH ([4]; 0.9% Sodium Chloride, pH 4.5, 0.6 mg/mL): 8.7
- appearance ([4]; 0.9% Sodium Chloride, pH 4.5, 0.6 mg/mL, 0 hours): Conforms^1
- appearance ([4]; 0.9% Sodium Chloride, pH 4.5, 0.6 mg/mL, 6 hours): Precipitate
- appearance ([4]; 0.9% Sodium Chloride, pH 4.5, 0.6 mg/mL, 24 hours): Precipitate
- pH ([4]; 0.9% Sodium Chloride, pH 4.5, 2.4 mg/mL): 9.4
- appearance ([4]; 0.9% Sodium Chloride, pH 4.5, 2.4 mg/mL, 0 hours): Conforms^1
- appearance ([4]; 0.9% Sodium Chloride, pH 4.5, 2.4 mg/mL, 6 hours): Precipitate
- appearance ([4]; 0.9% Sodium Chloride, pH 4.5, 2.4 mg/mL, 24 hours): Precipitate
- pH ([4]; 5% Dextrose, pH 3.2, 0.6 mg/mL): 7.5
- appearance ([4]; 5% Dextrose, pH 3.2, 0.6 mg/mL, 0 hours): Conforms^1
- appearance ([4]; 5% Dextrose, pH 3.2, 0.6 mg/mL, 6 hours): Precipitate
- appearance ([4]; 5% Dextrose, pH 3.2, 0.6 mg/mL, 24 hours): Precipitate
- pH ([4]; 5% Dextrose, pH 3.2, 2.4 mg/mL): 9.1
- appearance ([4]; 5% Dextrose, pH 3.2, 2.4 mg/mL, 0 hours): Conforms^1
- appearance ([4]; 5% Dextrose, pH 3.2, 2.4 mg/mL, 6 hours): Conforms^1
- appearance ([4]; 5% Dextrose, pH 3.2, 2.4 mg/mL, 24 hours): Precipitate
- pH ([4]; 5% Mannitol, pH 4.5, 0.6 mg/mL): 8.6
- appearance ([4]; 5% Mannitol, pH 4.5, 0.6 mg/mL, 0 hours): Conforms^1
- appearance ([4]; 5% Mannitol, pH 4.5, 0.6 mg/mL, 6 hours): Precipitate
- appearance ([4]; 5% Mannitol, pH 4.5, 0.6 mg/mL, 24 hours): Precipitate
- pH ([4]; 5% Mannitol, pH 4.5, 2.4 mg/mL): 9.8
- appearance ([4]; 5% Mannitol, pH 4.5, 2.4 mg/mL, 0 hours): Conforms^1
- appearance ([4]; 5% Mannitol, pH 4.5, 2.4 mg/mL, 6 hours): Conforms^1
- appearance ([4]; 5% Mannitol, pH 4.5, 2.4 mg/mL, 24 hours): Conforms^1
- appearance ([5]; 0 molar percent HCl added, pH 10.1): Conforms^2
- SDC-TRAP-0063 Sodium concentration in the solution ([5]; 0 molar percent HCl added, pH 10.1, after 24 hours of rocking, starting 23.6 mg/mL): >23.6 (after mg/mL
- SDC-TRAP-0063 Sodium concentration in the solution ([5]; 10.5 molar percent HCl added, pH 9.9): >23.5 mg/mL
- SDC-TRAP-0063 Sodium concentration in the solution ([5]; 18.2 molar percent HCl added, pH 9.9): >23.3 mg/mL
- SDC-TRAP-0063 Sodium concentration in the solution ([5]; 33.1 molar percent HCl added, pH 9.1): 20.2 mg/mL
- SDC-TRAP-0063 Sodium concentration in the solution ([5]; 35.5 molar percent HCl added, pH 9.4): 20.9 mg/mL
- precipitation ([5]; maximum concentration of 12 mg/mL): does not result in precipitation
- solubility (Solubility in water): > 52.5 mg/mL
